Source: patent US20250144127A1, “LONG-CHAIN COMPOUND AND USE THEREOF” (Burgeon Therapeutics Co., Ltd., priority 2021, published 2025)

What was measured:
[1] = test system: primary mouse hepatocytes; assay: Inhibition of de novo lipid synthesis in primary hepatocytes, [1,2-14C]-sodium acetate tracer; type: cell-based; conditions: Hepatocyte, compound 12.5 μM, 4 h, [1,2-14C]-acetate, read-out: Lipid synthesis inhibition (%) (mean ± SD)
Method: Primary hepatic cell isolation and walling: the mouse liver was lavaged by calcium-free perfusate, then digested using collagenase and mouse primary hepatocytes were obtained by density gradient centrifugation, and were inoculated in 6-well plates at a density of 3×10^5/ml (0.2% gelatin was coated before inoculating). After inoculating, the cells were cultured and adhered for 6 h. The medium was changed to serum-free LG-DMEM (containing 2× double antibody) and starved the cells overnight.
Isotope tracing: the next day, the medium was switched to serum-free LG-DMEM containing 10 nM insulin and the corresponding concentration of compounds (1950 μL, 4 replicate wells per group); 0.1 μCi of [1,2-^14C]-acetate serum-free medium was added to each well, and the plates were then incubated for 4 h in the incubator.
Lipid saponification: Add 1.6 mL of ice PBS to each well for washing 3 times, shake the plate to dry and add 600 μL of 0.5 M KOH to each well to lysis for 1 h. Pipette 480 μL into a glass test tube with 400 μL of 20% KOH (methanol was used as solvent), shake and mix well, and then place it in a water bath at 95° C. to saponify for 3 h. The remaining lysate was used for the determination of the concentration of proteins. Add 400 μL of petroleum ether to each tube, pipette 5-6 times and centrifuge at 2500 rpm for 5 min, take 350 μL of the upper layer of the clear solution to the EP tube, and then add 400 μL of petroleum ether to repeat the extraction for 2 times (a total of 3 times). After complete transfer of the supernatant, 200 μL of water and 400 μL of 5N sulfuric acid were added to each tube for acidification, and the mixture was shaken and mixed. Add 400 μL of petroleum ether to each tube, pipette 5-6 times and centrifuge at 2500 rpm for 5 min, take 350 μL of the upper layer of the clear solution to the EP tube, then add 400 μL of petroleum ether and repeat the extraction for 2 times (a total of 3 times). Place in a fume hood and evaporate the petroleum ether overnight.
Isotope participation quantification: 1700 μL of scintillation solution was added to each tube and read.
Data processing and analysis: Firstly, the isotopic reference (R control, unit: CCPM/mg protein) of free fatty acids and cholesterol was calculated for the Control group of untreated mouse primary hepatocytes within 4 hours, which represented the basal synthesis. The percent inhibition of lipid synthesis was then calculated for each concentration group of the sample.

[2] = test system: primary hepatocytes from WT mice; assay: De novo lipid synthesis in WT primary hepatocytes, [14C]-citric acid tracer; type: cell-based; conditions: WT mouse hepatocytes, [14C]-citric acid substrate
golden hamster = assay: High-fat and high-cholesterol diet-induced hyperlipidemia model of golden hamster; type: in vivo; conditions: 1 time/day, 7 days, vs control group
Text: Dosing regimen: The hyperlipidemia model of golden hamster is recognized as one of the ideal animal models for studying hyperlipidemia drug therapy (pharmacodynamic evaluation). In order to preliminarily investigate the existence of potential regulatory effects of the candidate compounds on hepatic lipid metabolism homeostasis, the high-fat and high-cholesterol diet-induced hyperlipidemia model of golden hamster was utilized for preliminary pharmacodynamic evaluation. The specific protocol was as follows. 56 golden hamsters, males, were modeled on high-fat and high-cholesterol diet (Research diet, item number C11953) for two weeks, and 8 golden hamsters were reserved as blank control group. Subsequently, group administration (7 groups, n=8) was performed, i.e., model control group, positive control ETC-1002 30 mg/kg group, compound A3 10 mg/kg and 30 mg/kg group, compound A4 10 mg/kg and 30 mg/kg group, and blank control group. The compounds in each group were configured with saline (0.9% NaCl) and administered at a frequency of 1 time/day for a 7-day dosing cycle.
Indicator test: The body weight and food intake of golden hamsters were closely monitored during the administration period. After 7 days of administration, blood was collected from the orbital region of each group (starved overnight for about 16 hours), centrifuged to obtain serum, and stored in cryopreservation, and then total cholesterol and LDL cholesterol were detected in the serum. The relative amount of the relevant indexes was calculated as follows: Relative amount (100%)=the amount in the administered group/the amount in the model control group*100%.

ob/ob mice = assay: NASH induced by high-fat, high-sugar, high-cholesterol diet in ob/ob mice; type: in vivo, mouse; conditions: 30 mg/kg, 1 time/day, 10 weeks
Method: Dosing regimen: 16 ob/ob mice, males, 7-8 weeks, were equally divided into 2 groups (n=8) and fed with high-fat, high-sugar, high-cholesterol diet (Research diet, item number D09100310) for 8 weeks for modeling, and a group of wild-type mice from the same litter was set up as a blank control group. Long-term drug administration was started after 8 weeks of modeling and the groups were model control group, compound A3 30 mg/kg group, and blank control group. The compounds in each group were prepared in saline (0.9% NaCl) and administered at a frequency of 1 time/day for 10 weeks.
Indicator test: The body weight and feeding changes of ob/ob mice and blank control mice were closely monitored during the administration period. After 10 weeks of administration, the livers of each group were taken and tested for NASH indicators (HE staining, Sirius red staining, immunohistochemistry for inflammatory signals, etc.).

crab-eating monkeys = assay: High-fat, high-sugar, high-cholesterol diet-induced NASH in crab-eating monkeys; type: in vivo, crab-eating monkey; conditions: 20 mg/kg, 1 time/day, 14 weeks, liver puncture
Method: Dosing regimen: 18 non-alcoholic steatohepatitis-eating crab monkeys, males, were divided into 2 groups (n=8-10), one group was set up as a model control group, and one group was set up as a drug administration group. The drug (20 mg/kg) was administered at a frequency of 1 time/day for 14 weeks while feeding a high-fat, high-sugar, high-cholesterol diet for 14 weeks.
Indicator tests: The body weights and food intake of the crab-eating monkeys were closely monitored during the administration period. After 14 weeks of compound administration, liver puncture was performed for pathologic analysis of NASH indicators.

[3] = Oral pharmacokinetics in ICR mice; type: in vivo, mouse
Method: Dosing regimen: 6 normal ICR mice, male, were divided into 2 groups (n=3), one group was orally given the positive control ETC-1002, and one group was orally given the tested compound A3, both administered at a dose of 30 mg/kg; blood was taken from the eye orbits at different time points before and after the administration of the drug, and the plasma drug concentration was detected.

[4] = male, mouse, ICR mice, oral, 30 mg/kg, plasma

In the case of `CC(C)(CCCC/C=C/CCCCCC(C)(C)C(=O)O)C(=O)O` [Compound A3], the inhibition at 12.5 µM [1] is reported as 71.2 ± 4.3%, the “de novo synthesis of triglycerides” value ([2]; FIG. 1 A) is reported as “significantly inhibited” and the “de novo synthesis of cholesterol” value ([2]; FIG. 1 B) is reported as “significantly inhibited”. For the same compound, the “serum LDL cholesterol” value (golden hamster; 10 mg/kg) was “significantly reduce”, the serum total cholesterol (golden hamster; 10 mg/kg) was “significantly reduce” and the “serum LDL cholesterol” value (golden hamster; 30 mg/kg) was “significantly reduce”. The serum total cholesterol (golden hamster; 30 mg/kg) was “significantly reduce”, the “liver whitening and granulomatous sensation due to excessive lipid accumulation” value (ob/ob mice) was “significantly reversed” and the “degree of hepatic collagen deposition (Sirius red staining)” value (ob/ob mice; vs model control) was “significantly reduced”. The “hepatic inflammatory cell infiltration (macrophage CD68 staining)” value (ob/ob mice; vs model control) was “significantly reduced”, the “liver steatosis and ballooning (H & E staining)” value (ob/ob mice; vs model control) was “significantly reduced” and the “accumulation of hepatic lipids” value (crab-eating monkeys) was “significantly reduce”. The “activity score of non-alcoholic steatohepatopathy (NAS)” value (crab-eating monkeys) was “significantly reduced”, the occurrence of fibrosis (crab-eating monkeys) was “significantly reduce” and the occurrence of inflammation (crab-eating monkeys) was “significantly reduce”. For the same compound, the AUC(0-inf) [3, 4] was 74200 ng·h/mL, the AUC(0-t) [3, 4] was 63700 ng·h/mL and the Cmax [3, 4] was 13400 ng/mL. For the same compound, the half-life [3, 4] was 5.65 h, the MRT inf ([3]; male, mouse, ICR mice, oral, 30 mg/kg, plasma, read-out: MRT0-∞) was 8.01 h and the “plasma exposure relative to Bempedoic acid” value ([3]; same oral dose) was “more than 4 times”.
